Data taken from US7589213B2 (priority 2007, dated 2009).

Key:
EP2 [1] = target: T1, EP2 (Homo sapiens, UniProt P43116); experiment: EP2 flipr assay; assay type: cell-based
Excerpt: (§1) U.S. patent application Ser. No. 11/553,143, filed on Oct. 26, 2006, incorporated by reference herein, describes the methods used to obtain the in vitro data in the table below.

hTP = target: T2, hTP (Homo sapiens, UniProt P21731); experiment: Other receptors functional EC50, hTP; assay type: cell-based
T2 sequence (P21731 1-343): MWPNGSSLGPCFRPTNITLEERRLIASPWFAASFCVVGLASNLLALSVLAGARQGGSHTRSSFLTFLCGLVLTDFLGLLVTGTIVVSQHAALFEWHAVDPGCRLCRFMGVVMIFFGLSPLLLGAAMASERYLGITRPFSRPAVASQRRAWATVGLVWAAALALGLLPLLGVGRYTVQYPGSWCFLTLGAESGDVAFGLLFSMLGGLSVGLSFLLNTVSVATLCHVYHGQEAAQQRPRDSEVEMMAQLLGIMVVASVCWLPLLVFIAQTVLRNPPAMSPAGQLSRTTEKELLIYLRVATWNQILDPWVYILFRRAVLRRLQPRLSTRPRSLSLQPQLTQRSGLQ
Excerpt: as §1

EP2 [2] = target: T1, EP2; experiment: EP2 binding (Ki)
Excerpt: as §1

hFP = hFP (Homo sapiens, UniProt P43088); experiment: Other receptors functional EC50, hFP; assay type: cell-based
Chain of hFP (P43088 whole entry): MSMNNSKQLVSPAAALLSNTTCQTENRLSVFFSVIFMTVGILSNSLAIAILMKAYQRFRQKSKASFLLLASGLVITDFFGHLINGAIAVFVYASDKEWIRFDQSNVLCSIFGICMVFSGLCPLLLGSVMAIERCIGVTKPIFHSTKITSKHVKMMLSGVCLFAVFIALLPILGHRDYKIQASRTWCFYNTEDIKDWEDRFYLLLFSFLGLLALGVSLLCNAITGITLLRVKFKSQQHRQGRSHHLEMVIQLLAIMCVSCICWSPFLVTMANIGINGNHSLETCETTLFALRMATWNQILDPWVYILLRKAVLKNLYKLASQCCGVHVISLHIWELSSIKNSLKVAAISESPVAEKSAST
Excerpt: as §1

EP2 [3] = target: T1, EP2; experiment: EP2 cAMP assay; assay type: cell-based
Excerpt: as §1

hDP = target: T3, hDP (Homo sapiens, UniProt Q13258); experiment: Other receptors functional EC50, hDP; assay type: cell-based
T3 sequence (Q13258 1-359): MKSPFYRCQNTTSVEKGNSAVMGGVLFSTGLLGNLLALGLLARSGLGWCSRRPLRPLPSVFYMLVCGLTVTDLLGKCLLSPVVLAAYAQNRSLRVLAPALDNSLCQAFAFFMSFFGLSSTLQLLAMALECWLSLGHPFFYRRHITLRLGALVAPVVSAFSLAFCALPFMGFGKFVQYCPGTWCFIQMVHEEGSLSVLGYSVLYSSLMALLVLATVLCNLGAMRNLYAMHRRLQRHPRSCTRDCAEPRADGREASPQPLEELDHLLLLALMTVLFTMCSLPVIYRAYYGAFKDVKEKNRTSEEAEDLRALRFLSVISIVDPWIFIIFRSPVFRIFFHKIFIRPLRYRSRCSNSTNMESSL
Excerpt: as §1

T1 sequence (P43116 whole entry): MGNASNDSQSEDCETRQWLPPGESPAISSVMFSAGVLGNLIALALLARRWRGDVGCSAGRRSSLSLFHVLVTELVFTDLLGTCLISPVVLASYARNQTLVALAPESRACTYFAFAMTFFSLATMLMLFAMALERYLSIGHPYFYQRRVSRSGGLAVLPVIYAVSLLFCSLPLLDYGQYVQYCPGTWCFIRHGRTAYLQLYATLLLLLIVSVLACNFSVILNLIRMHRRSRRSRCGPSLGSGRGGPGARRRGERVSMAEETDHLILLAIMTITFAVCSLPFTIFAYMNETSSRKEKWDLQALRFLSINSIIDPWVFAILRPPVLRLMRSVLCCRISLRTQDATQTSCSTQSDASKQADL

For `O=C(O)c1ccc(COC[C@H]2CCC(=O)N2c2ccc(-c3nccs3)cc2)s1` [compound 58, (R)-5-(((5-oxo-1-(4-(thiazol-2-yl)phenyl)pyrrolidin-2-yl)methoxy)methyl)thiophene-2-carboxylic acid], the EC50 (EP2 [1]) was 5.89 µM, the EC50 (hTP) was > 10000 nM and the Ki (EP2 [2]) was 0.215 µM. The EC50 (hFP) was > 10000 nM, the EC50 (EP2 [3]) was 0.038 µM and the EC50 (hDP) was 4640 nM.
